Like-named read-outs stand apart in the source and are kept apart here.
Legend:
Format in all cases: cell-based
[1] = system: TNF-α; experiment: Inhibition of TNF-α production by stimulated human peripheral blood leukocytes in vitro; conditions: Homo sapiens, Leukocyte, read-out: Percentage of inhibition of TNF-α production
Procedure, shortened: (§1)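 Sandwich ELISA of supernatant cytokines; % inhibition = (1 − sample/stimulated untreated control)×100. Dextran-isolated human PBL were pretreated 2 h with 10 or 50 μM compound, then challenged overnight with LPS (2 μg/mL), PMA (1 μg/mL) or zymosan (120 μg/mL).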

[2] = system: IL-1α; experiment: Inhibition of IL-1 production by stimulated human peripheral blood leukocytes in vitro; conditions: Homo sapiens, Leukocyte, read-out: Percentage of inhibition of IL-1α production
[3] = system: IL-6; experiment: Inhibition of IL-6 production by stimulated human peripheral blood leukocytes in vitro; conditions: Homo sapiens, Leukocyte, read-out: Percentage of inhibition of IL-6 production
Procedure, shortened: as §1

[4] = system: IL-8; experiment: Inhibition of IL-8 production by stimulated human peripheral blood leukocytes in vitro; conditions: Homo sapiens, Leukocyte, read-out: Percentage of inhibition of IL-8 production
Procedure, shortened: as §1

[5] = system: Hep G2; experiment: Cytotoxicity assay (MTT), Hep G2 cell line; conditions: 24 h
Protocol: (§2) To determine whether the anti-inflammatory activity of the test compounds was due to observed inhibition of cytokine production and inhibition of proliferation in vitro, and was not a consequence of cellular cytotoxicity, measurement of succinate dehydrogenase activity in living cells was performed. Cells were cultured for 24 h in RPM medium as described above at 37° C. the presence of the test compounds at concentrations of 50 μM and 12.5 μM. MTT [3-(4,5-dimethylthiazole-2-yl)-2,5-diphenyl tetrazolium bromide] (Promega, USA), a detection reagent, was then added and the cultures were incubated for 0.5-2 h. The amount of MTT-Formazan produced was determined using a spectrophotometer at 490 nm (Mosmann, J. Immunol. Methods, 1983, 65: 55-63).
(§3) The percentage of inhibition of cell growth was calculated using the following formula: % inhibition of cell growth=[…].

[6] = system: A549; experiment: Cytotoxicity assay (MTT), A549 cell line; conditions: 24 h
Protocol: as §2, §3

SMILES: CC[C@H]1OC(=O)[C@H](C)[C@@H](O[C@H]2C[C@@](C)(OC)[C@@H](OC(=O)CCN3CCN(CC4CCCN(C)C4)CC3)[C@H](C)O2)[C@H](C)[C@@H](O[C@@H]2O[C@H](C)C[C@H](N(C)C)[C@H]2O)[C@](C)(OC)C[C@@H](C)C(=O)N[C@H](C)[C@@H](O)[C@]1(C)O (some centres unmarked) [Example 33]
- inhibition at 10 µM ([1]; LPS-stimulated PBL): 16%
- inhibition at 10 µM ([1]; PMA-stimulated PBL): 23%
- inhibition at 10 µM ([1]; zymosan-stimulated PBL): 16%
- inhibition at 50 µM ([1]; LPS-stimulated PBL): 50%
- inhibition at 50 µM ([1]; PMA-stimulated PBL): 74%
- inhibition at 50 µM ([1]; zymosan-stimulated PBL): 53%
- inhibition at 10 µM ([2]; LPS-stimulated PBL): 28%
- inhibition at 10 µM ([2]; PMA-stimulated PBL): 33%
- inhibition at 10 µM ([2]; zymosan-stimulated PBL): 55%
- inhibition at 50 µM ([2]; LPS-stimulated PBL): 42%
- inhibition at 50 µM ([2]; PMA-stimulated PBL): 75%
- inhibition at 50 µM ([2]; zymosan-stimulated PBL): 85%
- inhibition at 10 µM ([3]; LPS-stimulated PBL): 8%
- inhibition at 10 µM ([3]; PMA-stimulated PBL): 9%
- inhibition at 10 µM ([3]; zymosan-stimulated PBL): 13%
- inhibition at 50 µM ([3]; LPS-stimulated PBL): 30%
- inhibition at 50 µM ([3]; PMA-stimulated PBL): 49%
- inhibition at 50 µM ([3]; zymosan-stimulated PBL): 40%
- inhibition at 10 µM ([4]; LPS-stimulated PBL): 0%
- inhibition at 10 µM ([4]; PMA-stimulated PBL): 0%
- inhibition at 10 µM ([4]; zymosan-stimulated PBL): 0%
- inhibition at 50 µM ([4]; LPS-stimulated PBL): 11%
- inhibition at 50 µM ([4]; PMA-stimulated PBL): 10%
- inhibition at 50 µM ([4]; zymosan-stimulated PBL): 40%
- Percentage of inhibition of cell growth ([5]; 12.5 μM): 5%
- Percentage of inhibition of cell growth ([5]; 50 μM): 4%
- Percentage of inhibition of cell growth ([6]; 12.5 μM): 0%
- Percentage of inhibition of cell growth ([6]; 50 μM): 0%

SMILES: CC[C@H]1OC(=O)[C@H](C)[C@@H](O[C@H]2C[C@@](C)(OC)[C@@H](OC(=O)CCNC(C)C)[C@H](C)O2)[C@H](C)[C@@H](O[C@@H]2O[C@H](C)C[C@H](N(C)C)[C@H]2O)[C@](C)(OC)C[C@@H](C)C(=O)N[C@H](C)[C@@H](O)[C@]1(C)O [Example 23]
- inhibition at 10 µM ([1]; LPS-stimulated PBL): 0%
- inhibition at 10 µM ([1]; PMA-stimulated PBL): 5%
- inhibition at 10 µM ([1]; zymosan-stimulated PBL): 0%
- inhibition at 50 µM ([1]; LPS-stimulated PBL): 19%
- inhibition at 50 µM ([1]; PMA-stimulated PBL): 54%
- inhibition at 50 µM ([1]; zymosan-stimulated PBL): 37%
- inhibition at 10 µM ([2]; LPS-stimulated PBL): 2%
- inhibition at 10 µM ([2]; PMA-stimulated PBL): 12%
- inhibition at 10 µM ([2]; zymosan-stimulated PBL): 67%
- inhibition at 50 µM ([2]; LPS-stimulated PBL): 39%
- inhibition at 50 µM ([2]; PMA-stimulated PBL): 69%
- inhibition at 50 µM ([2]; zymosan-stimulated PBL): 75%
- inhibition at 10 µM ([3]; LPS-stimulated PBL): 0%
- inhibition at 10 µM ([3]; PMA-stimulated PBL): 20%
- inhibition at 10 µM ([3]; zymosan-stimulated PBL): 35%
- inhibition at 50 µM ([3]; LPS-stimulated PBL): 14%
- inhibition at 50 µM ([3]; PMA-stimulated PBL): 59%
- inhibition at 50 µM ([3]; zymosan-stimulated PBL): 45%
- inhibition at 10 µM ([4]; LPS-stimulated PBL): 0%
- inhibition at 10 µM ([4]; PMA-stimulated PBL): 0%
- inhibition at 10 µM ([4]; zymosan-stimulated PBL): 22%
- inhibition at 50 µM ([4]; LPS-stimulated PBL): 10%
- inhibition at 50 µM ([4]; PMA-stimulated PBL): 15%
- inhibition at 50 µM ([4]; zymosan-stimulated PBL): 43%
- Percentage of inhibition of cell growth ([5]; 12.5 μM): 6%
- Percentage of inhibition of cell growth ([5]; 50 μM): 5%
- Percentage of inhibition of cell growth ([6]; 12.5 μM): 0%
- Percentage of inhibition of cell growth ([6]; 50 μM): 0%

SMILES: CC[C@H]1OC(=O)[C@H](C)[C@@H](OC2C[C@@](C)(OC)[C@@H](OC(=O)CCN3CCNCC3)[C@H](C)O2)[C@H](C)[C@@H](OC2O[C@H](C)C[C@H](N(C)C)[C@H]2O)[C@](C)(OC)C[C@@H](C)C(=O)[C@H](C)[C@@H](O)[C@]1(C)O (some centres unmarked) [Example 50, 4″-O-(3-piperazin-1-yl-propionyl)-6-O-methylerithromycin A]
- inhibition at 10 µM ([1]; LPS-stimulated PBL): 10%
- inhibition at 10 µM ([1]; PMA-stimulated PBL): 0%
- inhibition at 10 µM ([1]; zymosan-stimulated PBL): 36%
- inhibition at 50 µM ([1]; LPS-stimulated PBL): 100%
- inhibition at 50 µM ([1]; PMA-stimulated PBL): 100%
- inhibition at 50 µM ([1]; zymosan-stimulated PBL): 98%
- inhibition at 10 µM ([2]; LPS-stimulated PBL): 19%
- inhibition at 10 µM ([2]; PMA-stimulated PBL): 0%
- inhibition at 10 µM ([2]; zymosan-stimulated PBL): 81%
- inhibition at 50 µM ([2]; LPS-stimulated PBL): 23%
- inhibition at 50 µM ([2]; PMA-stimulated PBL): 44%
- inhibition at 50 µM ([2]; zymosan-stimulated PBL): 69%
- inhibition at 10 µM ([3]; LPS-stimulated PBL): 0%
- inhibition at 10 µM ([3]; PMA-stimulated PBL): 0%
- inhibition at 10 µM ([3]; zymosan-stimulated PBL): 52%
- inhibition at 50 µM ([3]; LPS-stimulated PBL): 54%
- inhibition at 50 µM ([3]; PMA-stimulated PBL): 23%
- inhibition at 50 µM ([3]; zymosan-stimulated PBL): 96%
- inhibition at 10 µM ([4]; LPS-stimulated PBL): 0%
- inhibition at 10 µM ([4]; PMA-stimulated PBL): 0%
- inhibition at 10 µM ([4]; zymosan-stimulated PBL): 0%
- inhibition at 50 µM ([4]; LPS-stimulated PBL): 61%
- inhibition at 50 µM ([4]; PMA-stimulated PBL): 100%
- inhibition at 50 µM ([4]; zymosan-stimulated PBL): 70%
- Percentage of inhibition of cell growth ([5]; 12.5 μM): 0%
- Percentage of inhibition of cell growth ([5]; 50 μM): 8%
- Percentage of inhibition of cell growth ([6]; 12.5 μM): 10%
- Percentage of inhibition of cell growth ([6]; 50 μM): 10%

SMILES: CC[C@H]1OC(=O)[C@H](C)[C@@H](O[C@H]2C[C@@](C)(OC)[C@@H](OC(=O)CCN(C)C3CCCCC3)[C@H](C)O2)[C@H](C)[C@@H](O[C@@H]2O[C@H](C)C[C@H](N(C)C)[C@H]2O)[C@](C)(OC)C[C@@H](C)C(=O)N[C@H](C)[C@@H](O)[C@]1(C)O [Example 25]
- inhibition at 10 µM ([1]; LPS-stimulated PBL): 0%
- inhibition at 10 µM ([1]; PMA-stimulated PBL): 41%
- inhibition at 10 µM ([1]; zymosan-stimulated PBL): 19%
- inhibition at 50 µM ([1]; LPS-stimulated PBL): 71%
- inhibition at 50 µM ([1]; PMA-stimulated PBL): 91%
- inhibition at 50 µM ([1]; zymosan-stimulated PBL): 88%
- inhibition at 10 µM ([2]; LPS-stimulated PBL): 22%
- inhibition at 10 µM ([2]; PMA-stimulated PBL): 58%
- inhibition at 10 µM ([2]; zymosan-stimulated PBL): 82%
- inhibition at 50 µM ([2]; LPS-stimulated PBL): 61%
- inhibition at 50 µM ([2]; PMA-stimulated PBL): 86%
- inhibition at 50 µM ([2]; zymosan-stimulated PBL): 93%
- inhibition at 10 µM ([3]; LPS-stimulated PBL): 4%
- inhibition at 10 µM ([3]; PMA-stimulated PBL): 51%
- inhibition at 10 µM ([3]; zymosan-stimulated PBL): 51%
- inhibition at 50 µM ([3]; LPS-stimulated PBL): 62%
- inhibition at 50 µM ([3]; PMA-stimulated PBL): 87%
- inhibition at 50 µM ([3]; zymosan-stimulated PBL): 86%
- inhibition at 10 µM ([4]; LPS-stimulated PBL): 0%
- inhibition at 10 µM ([4]; PMA-stimulated PBL): 0%
- inhibition at 10 µM ([4]; zymosan-stimulated PBL): 17%
- inhibition at 50 µM ([4]; LPS-stimulated PBL): 45%
- inhibition at 50 µM ([4]; PMA-stimulated PBL): 34%
- inhibition at 50 µM ([4]; zymosan-stimulated PBL): 63%
- Percentage of inhibition of cell growth ([5]; 12.5 μM): 10%
- Percentage of inhibition of cell growth ([5]; 50 μM): 8%
- Percentage of inhibition of cell growth ([6]; 12.5 μM): 8%
- Percentage of inhibition of cell growth ([6]; 50 μM): 4%

SMILES: C=CC(=O)OC1[C@H](C)O[C@@H](O[C@H]2[C@H](C)[C@@H](O[C@@H]3O[C@H](C)C[C@H](NC)[C@H]3O)[C@](C)(OC)C[C@@H](C)C(=O)N[C@H](C)[C@@H](O)[C@](C)(O)[C@@H](CC)OC(=O)[C@@H]2C)C[C@@]1(C)OC (some centres unmarked) [Example 53, 3′-N-Demethyl-4″-O-acryloyl-6-O-methyl-9a-aza-9a-homoerythromycin A]
- inhibition at 10 µM ([1]; LPS-stimulated PBL): 28%
- inhibition at 10 µM ([1]; PMA-stimulated PBL): 82%
- inhibition at 10 µM ([1]; zymosan-stimulated PBL): 64%
- inhibition at 50 µM ([1]; LPS-stimulated PBL): 100%
- inhibition at 50 µM ([1]; PMA-stimulated PBL): 100%
- inhibition at 50 µM ([1]; zymosan-stimulated PBL): 100%
- inhibition at 10 µM ([2]; LPS-stimulated PBL): 83%
- inhibition at 10 µM ([2]; PMA-stimulated PBL): 92%
- inhibition at 10 µM ([2]; zymosan-stimulated PBL): 92%
- inhibition at 50 µM ([2]; LPS-stimulated PBL): 95%
- inhibition at 50 µM ([2]; PMA-stimulated PBL): 99%
- inhibition at 50 µM ([2]; zymosan-stimulated PBL): 100%
- inhibition at 10 µM ([3]; LPS-stimulated PBL): 20%
- inhibition at 10 µM ([3]; PMA-stimulated PBL): 66%
- inhibition at 10 µM ([3]; zymosan-stimulated PBL): 68%
- inhibition at 50 µM ([3]; LPS-stimulated PBL): 99%
- inhibition at 50 µM ([3]; PMA-stimulated PBL): 95%
- inhibition at 50 µM ([3]; zymosan-stimulated PBL): 100%
- inhibition at 10 µM ([4]; LPS-stimulated PBL): 9%
- inhibition at 10 µM ([4]; PMA-stimulated PBL): 30%
- inhibition at 10 µM ([4]; zymosan-stimulated PBL): 19%
- inhibition at 50 µM ([4]; LPS-stimulated PBL): 100%
- inhibition at 50 µM ([4]; PMA-stimulated PBL): 63%
- inhibition at 50 µM ([4]; zymosan-stimulated PBL): 92%
- Percentage of inhibition of cell growth ([5]; 12.5 μM): 0%
- Percentage of inhibition of cell growth ([5]; 50 μM): 2%
- Percentage of inhibition of cell growth ([6]; 12.5 μM): 9%
- Percentage of inhibition of cell growth ([6]; 50 μM): 12%
